pIC50: −log10 of the molar value. ≈ marks a conversion by molar mass, not a printed value.
Legend:
Plasma kallikrein = Plasma kallikrein (Homo sapiens, UniProt P03952); format: single protein
Coagulation factor XI [1] = biological target: T1, Coagulation factor XI (Homo sapiens, UniProt P03951); experiment: Inhibition of […] human plasma F11a catalytic domain expressed in Escherichia coli strain BL21(DE3) using D-Leu-Pro-Arg*Rh110-D-Pro as substrate preincubated for 60 mins followed by substrate addition and measured after 60 mins by fluorescence assay
T1 sequence (P03951 19-387 limits assumed): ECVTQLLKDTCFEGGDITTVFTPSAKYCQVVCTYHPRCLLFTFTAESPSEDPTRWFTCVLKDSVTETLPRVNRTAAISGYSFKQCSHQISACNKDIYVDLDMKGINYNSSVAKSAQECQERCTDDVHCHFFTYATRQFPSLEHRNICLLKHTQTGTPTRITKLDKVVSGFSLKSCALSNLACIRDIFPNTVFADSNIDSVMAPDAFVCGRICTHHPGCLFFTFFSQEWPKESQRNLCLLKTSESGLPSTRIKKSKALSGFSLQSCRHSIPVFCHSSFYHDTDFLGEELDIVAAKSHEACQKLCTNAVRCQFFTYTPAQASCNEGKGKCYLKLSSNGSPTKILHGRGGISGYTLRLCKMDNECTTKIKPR
T1 sequence (P03951 388-625 limits assumed): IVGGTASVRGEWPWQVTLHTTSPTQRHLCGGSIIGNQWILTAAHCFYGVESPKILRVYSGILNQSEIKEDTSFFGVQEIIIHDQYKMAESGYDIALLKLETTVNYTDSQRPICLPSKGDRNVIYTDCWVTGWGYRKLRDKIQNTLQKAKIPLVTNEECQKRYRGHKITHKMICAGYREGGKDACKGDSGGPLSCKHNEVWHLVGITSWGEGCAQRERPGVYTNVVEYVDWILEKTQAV

Coagulation factor XI [2] = biological target: T1, Coagulation factor XI; experiment: Inhibition of human F11a using D-Leu-Pro-Arg*Rh110-D-Pro as substrate preincubated for 60 mins followed by substrate addition and measured after 60 mins by fluorescence assay
physchem = details: aqueous buffer, pH 6.8
Homo sapiens = organism: Homo sapiens; experiment: Selectivity ratio of IC50 for inhibition of human complement FD to IC50 for inhibition of human F11a
[3] = human, caco-2; BLD = below limit of detection
Complement factor D = Complement factor D (Homo sapiens, UniProt P00746); format: single protein
Sequence of Complement factor D (P00746 whole entry): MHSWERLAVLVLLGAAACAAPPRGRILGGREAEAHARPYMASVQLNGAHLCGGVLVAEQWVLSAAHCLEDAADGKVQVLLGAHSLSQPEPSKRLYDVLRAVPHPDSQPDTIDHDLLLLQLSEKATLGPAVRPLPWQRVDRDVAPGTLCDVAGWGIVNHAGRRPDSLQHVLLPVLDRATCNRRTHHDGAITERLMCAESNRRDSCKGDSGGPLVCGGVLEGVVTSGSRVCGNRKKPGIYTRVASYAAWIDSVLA

in vitro [4] = details: human, Caco-2
Plasminogen = Plasminogen (Homo sapiens, UniProt P00747); format: single protein
Sequence of Plasminogen (P00747 97-580 limits assumed): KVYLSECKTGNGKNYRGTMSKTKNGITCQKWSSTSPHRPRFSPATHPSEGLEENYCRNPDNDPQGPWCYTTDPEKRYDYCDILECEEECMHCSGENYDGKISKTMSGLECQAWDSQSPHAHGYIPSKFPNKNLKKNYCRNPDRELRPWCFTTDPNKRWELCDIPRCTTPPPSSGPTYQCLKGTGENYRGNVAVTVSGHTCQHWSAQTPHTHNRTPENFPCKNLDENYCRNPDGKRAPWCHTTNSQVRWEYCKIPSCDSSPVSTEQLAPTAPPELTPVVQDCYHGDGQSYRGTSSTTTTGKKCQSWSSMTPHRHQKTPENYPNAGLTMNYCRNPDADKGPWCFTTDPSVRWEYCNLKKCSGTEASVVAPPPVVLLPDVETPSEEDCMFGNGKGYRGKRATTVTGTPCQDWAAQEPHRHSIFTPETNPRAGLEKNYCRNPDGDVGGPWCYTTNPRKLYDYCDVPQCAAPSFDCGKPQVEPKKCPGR
Sequence of Plasminogen (P00747 581-810 limits assumed): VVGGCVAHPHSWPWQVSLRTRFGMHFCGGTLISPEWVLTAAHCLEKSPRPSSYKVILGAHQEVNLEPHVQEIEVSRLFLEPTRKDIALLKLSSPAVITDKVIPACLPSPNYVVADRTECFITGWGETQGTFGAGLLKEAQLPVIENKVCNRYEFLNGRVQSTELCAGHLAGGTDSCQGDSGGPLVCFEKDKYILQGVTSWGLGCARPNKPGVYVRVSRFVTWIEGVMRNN

Coagulation factor X = Coagulation factor X (Homo sapiens, UniProt P00742); format: single protein
Sequence of Coagulation factor X (P00742 41-179 limits assumed): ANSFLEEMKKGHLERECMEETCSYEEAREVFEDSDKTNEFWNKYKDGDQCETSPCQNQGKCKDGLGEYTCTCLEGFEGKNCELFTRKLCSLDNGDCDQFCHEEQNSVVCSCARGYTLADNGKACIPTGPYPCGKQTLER
Sequence of Coagulation factor X (P00742 235-488 limits assumed): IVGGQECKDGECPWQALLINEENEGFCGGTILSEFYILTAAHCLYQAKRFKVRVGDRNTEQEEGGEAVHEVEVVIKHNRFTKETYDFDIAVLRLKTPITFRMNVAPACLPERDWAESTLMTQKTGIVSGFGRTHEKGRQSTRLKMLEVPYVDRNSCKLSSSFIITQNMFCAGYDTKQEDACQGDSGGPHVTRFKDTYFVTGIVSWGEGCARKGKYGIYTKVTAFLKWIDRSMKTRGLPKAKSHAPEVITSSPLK

[5] = Dose normalized Cmax in C57BL/6 mouse at 1 mg/kg, iv bolus injection or 3 mg/kg, po by LC-MS/MS analysis; format: ADME, organism-based; details: in vivo
[6] = biological target: Tissue-type plasminogen activator (Homo sapiens, UniProt P00750); format: single protein
Sequence of Tissue-type plasminogen activator (P00750 whole entry): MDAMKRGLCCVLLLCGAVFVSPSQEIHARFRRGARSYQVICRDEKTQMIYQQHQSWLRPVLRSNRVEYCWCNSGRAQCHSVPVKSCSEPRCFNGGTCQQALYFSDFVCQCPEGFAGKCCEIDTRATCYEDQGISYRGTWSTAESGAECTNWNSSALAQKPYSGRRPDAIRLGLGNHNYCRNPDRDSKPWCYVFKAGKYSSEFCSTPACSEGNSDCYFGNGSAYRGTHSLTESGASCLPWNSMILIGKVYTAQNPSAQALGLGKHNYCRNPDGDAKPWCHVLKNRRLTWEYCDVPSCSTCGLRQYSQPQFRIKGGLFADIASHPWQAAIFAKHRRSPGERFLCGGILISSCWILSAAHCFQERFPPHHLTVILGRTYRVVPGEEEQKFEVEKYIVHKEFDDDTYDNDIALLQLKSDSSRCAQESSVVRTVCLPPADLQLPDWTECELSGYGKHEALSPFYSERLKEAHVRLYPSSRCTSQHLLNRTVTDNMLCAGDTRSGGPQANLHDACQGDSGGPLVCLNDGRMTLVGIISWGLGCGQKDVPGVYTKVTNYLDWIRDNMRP

[7] = biological target: Prostaglandin G/H synthase 1 (Homo sapiens, UniProt P23219); experiment: Inhibition of COX1 (unknown origin)
Sequence of Prostaglandin G/H synthase 1 (P23219 whole entry): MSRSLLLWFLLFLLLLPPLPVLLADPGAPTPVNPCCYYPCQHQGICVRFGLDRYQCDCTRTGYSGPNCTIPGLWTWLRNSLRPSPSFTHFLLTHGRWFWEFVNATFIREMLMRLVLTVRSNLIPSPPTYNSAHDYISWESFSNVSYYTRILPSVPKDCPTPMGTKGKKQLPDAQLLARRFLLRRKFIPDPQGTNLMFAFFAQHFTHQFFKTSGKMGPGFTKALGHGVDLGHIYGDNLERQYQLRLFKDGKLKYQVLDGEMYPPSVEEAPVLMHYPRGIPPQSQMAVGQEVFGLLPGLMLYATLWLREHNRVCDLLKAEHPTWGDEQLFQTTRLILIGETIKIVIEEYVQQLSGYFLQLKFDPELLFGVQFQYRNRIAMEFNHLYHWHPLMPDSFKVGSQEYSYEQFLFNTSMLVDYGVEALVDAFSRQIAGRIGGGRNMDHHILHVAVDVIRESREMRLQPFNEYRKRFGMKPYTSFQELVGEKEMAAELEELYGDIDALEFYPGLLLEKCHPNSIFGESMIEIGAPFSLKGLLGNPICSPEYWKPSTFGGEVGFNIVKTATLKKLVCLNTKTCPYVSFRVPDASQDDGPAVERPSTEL

Prothrombin = Prothrombin (Homo sapiens, UniProt P00734); format: single protein
[8] = biological target: T2, Urokinase-type plasminogen activator (Homo sapiens, UniProt P00749); format: single protein
[9] = biological target: T2, Urokinase-type plasminogen activator; format: ADME
[10] = biological target: Synaptic vesicular amine transporter (Homo sapiens, UniProt Q05940); experiment: Inhibition of VMAT2 (unknown origin)
Sequence of Synaptic vesicular amine transporter (Q05940 whole entry): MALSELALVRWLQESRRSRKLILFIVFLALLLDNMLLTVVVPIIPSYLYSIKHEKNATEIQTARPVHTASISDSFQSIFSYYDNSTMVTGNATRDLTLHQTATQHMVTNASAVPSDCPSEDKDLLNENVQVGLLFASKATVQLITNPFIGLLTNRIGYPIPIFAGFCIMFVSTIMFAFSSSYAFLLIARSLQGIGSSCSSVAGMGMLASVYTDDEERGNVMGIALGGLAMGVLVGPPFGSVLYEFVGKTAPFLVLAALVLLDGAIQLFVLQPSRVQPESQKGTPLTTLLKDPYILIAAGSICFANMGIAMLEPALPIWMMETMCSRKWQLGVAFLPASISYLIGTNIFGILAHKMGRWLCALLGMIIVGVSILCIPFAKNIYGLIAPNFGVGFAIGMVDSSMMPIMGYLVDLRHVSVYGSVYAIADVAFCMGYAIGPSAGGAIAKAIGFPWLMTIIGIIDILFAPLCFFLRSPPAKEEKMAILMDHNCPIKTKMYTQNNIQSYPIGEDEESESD

[11] = Clearance in C57BL/6 mouse at 1 mg/kg, iv bolus injection or 3 mg/kg, po by LC-MS/MS analysis; format: ADME, organism-based; details: in vivo
[12] = Volume of distribution at steady state in C57BL/6 mouse at 1 mg/kg, iv bolus injection or 3 mg/kg, po by LC-MS/MS analysis; format: ADME, organism-based; details: in vivo, read-out: Vdss
Plasma [13] = experiment: Anticoagulant activity in human plasma assessed as concentration required to double the activated partial thromboplastin time incubated for 3 mins followed by calcium chloride addition by aPTT-s reagent based automated coagulometric method; format: functional
[14] = Terminal half life in C57BL/6 mouse at 1 mg/kg, iv bolus injection or 3 mg/kg, po by LC-MS/MS analysis; format: ADME, organism-based; details: in vivo, read-out: beta t1/2 (converted)
Coagulation factor IX = Coagulation factor IX (Homo sapiens, UniProt P00740); format: single protein
Sequence of Coagulation factor IX (P00740 47-191 limits assumed): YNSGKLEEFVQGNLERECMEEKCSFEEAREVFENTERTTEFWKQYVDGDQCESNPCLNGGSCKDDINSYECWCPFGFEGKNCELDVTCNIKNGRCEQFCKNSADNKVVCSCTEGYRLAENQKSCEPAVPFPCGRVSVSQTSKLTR
Sequence of Coagulation factor IX (P00740 227-461 limits assumed): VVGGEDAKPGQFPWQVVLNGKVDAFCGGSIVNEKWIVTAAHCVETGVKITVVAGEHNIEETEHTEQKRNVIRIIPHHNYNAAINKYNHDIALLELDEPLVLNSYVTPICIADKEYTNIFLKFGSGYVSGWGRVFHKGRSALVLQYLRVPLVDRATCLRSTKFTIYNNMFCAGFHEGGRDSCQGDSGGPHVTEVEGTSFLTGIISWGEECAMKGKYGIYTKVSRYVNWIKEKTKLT

[15] = Oral bioavailability in C57BL/6 mouse at 3 mg/kg by LC-MS/MS analysis; format: ADME, organism-based; details: in vivo
Coagulation factor VII = biological target: T3, Coagulation factor VII (Homo sapiens, UniProt P08709); format: single protein
T3 sequence (P08709 whole entry): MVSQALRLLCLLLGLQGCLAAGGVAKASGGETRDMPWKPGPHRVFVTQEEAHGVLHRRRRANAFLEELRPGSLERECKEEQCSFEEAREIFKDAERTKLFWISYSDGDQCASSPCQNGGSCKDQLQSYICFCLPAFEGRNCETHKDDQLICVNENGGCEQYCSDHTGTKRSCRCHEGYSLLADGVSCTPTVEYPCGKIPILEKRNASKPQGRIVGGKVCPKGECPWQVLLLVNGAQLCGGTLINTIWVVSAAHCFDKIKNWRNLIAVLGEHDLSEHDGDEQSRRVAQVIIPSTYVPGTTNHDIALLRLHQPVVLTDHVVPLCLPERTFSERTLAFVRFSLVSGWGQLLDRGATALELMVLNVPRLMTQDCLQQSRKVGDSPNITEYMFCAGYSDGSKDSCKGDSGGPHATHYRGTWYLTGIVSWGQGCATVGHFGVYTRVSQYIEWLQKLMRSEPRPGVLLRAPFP

[16] = biological target: 3',5'-cyclic-AMP phosphodiesterase 4D (Homo sapiens, UniProt Q08499); experiment: Inhibition of PDE4D (unknown origin)
Plasma [17] = experiment: Effect on coagulation in human plasma assessed as concentration required to double the prothrombin time by thromboplastin-DS reagent based automated coagulometric method; format: ADME, cell-free
[18] = Dose normalized AUC in C57BL/6 mouse at 3 mg/kg, po by LC-MS/MS analysis; format: ADME, organism-based; details: in vivo
in vitro [19] = details: human, Caco-2; remark: listed apart in the source
in vitro [20] = details: human, Caco-2; remark: listed apart in the source
[21] = Dose normalized AUC in C57BL/6 mouse at 1 mg/kg, iv by LC-MS/MS analysis; format: ADME, organism-based; details: in vivo
[22] = Terminal half life in C57BL/6 mouse at 1 mg/kg, iv bolus injection or 10 mg/kg, po by LC-MS/MS analysis; format: ADME, organism-based; details: in vivo, read-out: beta t1/2 (converted)
[23] = Volume of distribution at steady state in C57BL/6 mouse at 1 mg/kg, iv bolus injection or 10 mg/kg, po by LC-MS/MS analysis; format: ADME, organism-based; details: in vivo, read-out: Vdss
[24] = Dose normalized Cmax in C57BL/6 mouse at 1 mg/kg, iv bolus injection or 10 mg/kg, po by LC-MS/MS analysis; format: ADME, organism-based; details: in vivo
[25] = Lipophilicity, log D of compound at pH 6.8; format: physicochemical; details: buffer
[26] = biological target: Voltage-gated inwardly rectifying potassium channel KCNH2 (Homo sapiens, UniProt Q12809)

Sequence of Plasma kallikrein (P03952 20-390 limits assumed): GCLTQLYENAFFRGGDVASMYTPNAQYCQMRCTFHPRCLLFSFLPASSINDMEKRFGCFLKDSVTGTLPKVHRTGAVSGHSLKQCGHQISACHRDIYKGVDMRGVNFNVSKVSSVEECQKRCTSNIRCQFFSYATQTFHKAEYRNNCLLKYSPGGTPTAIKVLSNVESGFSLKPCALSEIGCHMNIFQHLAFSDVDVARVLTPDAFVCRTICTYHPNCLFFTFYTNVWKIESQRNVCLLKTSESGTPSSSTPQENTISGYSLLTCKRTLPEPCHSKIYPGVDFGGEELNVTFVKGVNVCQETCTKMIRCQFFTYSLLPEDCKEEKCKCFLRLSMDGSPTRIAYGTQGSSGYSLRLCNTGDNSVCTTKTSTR
Sequence of Plasma kallikrein (P03952 391-638 limits assumed): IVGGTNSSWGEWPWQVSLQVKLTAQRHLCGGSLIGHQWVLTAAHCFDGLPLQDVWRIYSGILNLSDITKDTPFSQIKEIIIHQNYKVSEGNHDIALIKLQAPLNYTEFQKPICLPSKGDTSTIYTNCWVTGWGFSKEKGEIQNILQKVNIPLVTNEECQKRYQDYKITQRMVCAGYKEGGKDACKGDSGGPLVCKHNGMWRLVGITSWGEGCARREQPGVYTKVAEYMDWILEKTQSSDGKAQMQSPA

## CC(C)(C(N)=O)c1cc(COc2ccccc2CC(=O)O)cc(-c2ccc3c(c2)[C@H](N)CO3)c1
Plasma kallikrein
  pIC50: 7.96
Coagulation factor XI [1]
  pIC50: 7.17
Coagulation factor XI [2]
  pIC50: 8.05
physchem
  solubility thermodynamic: 780 µM (≈ 359 µg/mL)
Homo sapiens
  Ratio IC50: 80
[3]
  Papp: Bld
Complement factor D
  pIC50: 6.49
In vitro [4]
  Papp B→A: 4 ×10⁻⁶ cm/s

## CC(C)c1cc(COc2ccccc2CC(=O)O)cc(-c2ccc3c(c2)[C@H](N)CO3)c1
Plasminogen
  pIC50: 5.59
Coagulation factor X
  pIC50: 6.30
[5]
  Cmax/dose: 5263 nM
[6]
  pIC50: 7.05
[7]
  pIC50: 5.48
Prothrombin
  pIC50: 7.05
[8]
  pIC50: 7.33
[9]
  pIC50: 7.33
Complement factor D
  pIC50: 7.40
[10]
  pIC50: 5.28
[11]
  clearance: 1 mL/min/kg
[12]
  Vd: 0.4 L/kg
Plasma [13]
  2aPTT: 2.2 µM
[14]
  half-life: 5.5 h
Coagulation factor IX
  pIC50: 6.77
[15]
  bioavailability: 100%
Coagulation factor VII
  pIC50: 5.29
[16]
  pIC50: 5.14
Plasma [17]
  2PT: 9.9 µM
[18]
  AUC/dose: 48927 nM·h

## CC(C)c1cc(-c2ccc3c(c2)[C@H](N)CO3)cc([C@@H]2CNc3cccc(CC(=O)O)c3O2)c1
Plasma kallikrein
  pIC50: 9.00
Coagulation factor XI [1]
  pIC50: 8.00
Plasminogen
  pIC50: 6.16
Coagulation factor X
  pIC50: 6.66
Coagulation factor XI [2]
  pIC50: > 9.15
[6]
  pIC50: 7.30
Prothrombin
  pIC50: 7.52
[8]
  pIC50: 7.70
Complement factor D
  pIC50: 7.22
Plasma [13]
  2aPTT: 0.4 µM
Coagulation factor IX
  pIC50: 7.52
Coagulation factor VII
  pIC50: 5.70

## CC(C)c1cc(-c2ccc3c(c2)[C@H](N)CO3)cc(C(O)CN2CCc3cccc(C(=O)O)c32)c1 (mixture of isomers)
Plasma kallikrein
  pIC50: 8.70
Coagulation factor XI [1]
  pIC50: 6.77
Plasminogen
  pIC50: 5.02
Coagulation factor X
  pIC50: 5.77
Coagulation factor XI [2]
  pIC50: 8.70
[6]
  pIC50: 6.31
Prothrombin
  pIC50: 5.21
[8]
  pIC50: 6.60
Homo sapiens
  Ratio IC50: 30000
Complement factor D
  pIC50: 4.13
Coagulation factor IX
  pIC50: 5.10
Coagulation factor VII
  pIC50: 5.06

## CC(C)(C#N)c1cc(COc2ccccc2CC(=O)O)cc(-c2ccc3c(c2)[C@H](N)CO3)c1
Plasma kallikrein
  pIC50: 8.70
Coagulation factor XI [1]
  pIC50: 7.30
Coagulation factor XI [2]
  pIC50: 8.40
physchem
  solubility thermodynamic: 60 µM (≈ 26.6 µg/mL)
[5]
  Cmax/dose: 137 nM
In vitro [19]
  Papp A→B: 1.4 ×10⁻⁶ cm/s
Complement factor D
  pIC50: 7.40
In vitro [20]
  efflux ratio: 30
In vitro [4]
  Papp B→A: 41 ×10⁻⁶ cm/s
[11]
  clearance: 55 mL/min/kg
[12]
  Vd: 0.7 L/kg
[14]
  half-life: 0.3 h
[15]
  bioavailability: 25%
[18]
  AUC/dose: 171 nM·h

## CC1(C)COc2c(COc3ccccc3CC(=O)O)cc(-c3ccc4c(c3)[C@H](N)CCO4)cc21
Plasma kallikrein
  pIC50: 8.40
Coagulation factor XI [1]
  pIC50: 6.59
Plasminogen
  pIC50: 4.85
Coagulation factor X
  pIC50: 5.37
Coagulation factor XI [2]
  pIC50: 8.22
[6]
  pIC50: 6.72
Prothrombin
  pIC50: 6.07
Homo sapiens
  Ratio IC50: 2500
[9]
  pIC50: 6.02
Complement factor D
  pIC50: 4.82
Coagulation factor IX
  pIC50: 5.80
Coagulation factor VII
  pIC50: 4.12

## NCc1cccc(-c2cccc(COc3ccccc3CC(=O)O)c2)c1
Plasma kallikrein
  pIC50: 5.51
Plasminogen
  pIC50: 5.66
[21]
  AUC/dose: 3284 nM·h
[22]
  half-life: 1.6 h
[23]
  Vd: 0.7 L/kg
Coagulation factor VII
  pIC50: 5.85
[24]
  Cmax/dose: 2591 nM
[25]
  logD: 1.91
[26]
  pIC50: < 4.52

## CC1(C)COc2c(COc3ccccc3CC(=O)O)cc(-c3ccc4c(c3)[C@H](N)CO4)cc21
Plasma kallikrein
  pIC50: 8.15
Coagulation factor XI [1]
  pIC50: 7.07
Plasminogen
  pIC50: 5.20
Coagulation factor X
  pIC50: 6.08
Coagulation factor XI [2]
  pIC50: 8.52
physchem
  solubility thermodynamic: < 4 µM
[5]
  Cmax/dose: 1126 nM
[6]
  pIC50: 7.00
Prothrombin
  pIC50: 6.89
Homo sapiens
  Ratio IC50: 17
[9]
  pIC50: 7.80
In vitro [19]
  Papp A→B: 12 ×10⁻⁶ cm/s
Complement factor D
  pIC50: 7.30
In vitro [20]
  efflux ratio: 1
In vitro [4]
  Papp B→A: 12 ×10⁻⁶ cm/s
[11]
  clearance: 4 mL/min/kg
[12]
  Vd: 1 L/kg
Plasma [13]
  2aPTT: 2.5 µM
[14]
  half-life: 6.4 h
Coagulation factor IX
  pIC50: 6.68
[15]
  bioavailability: 61%
Coagulation factor VII
  pIC50: 5.15
Plasma [17]
  2PT: 19.8 µM
[18]
  AUC/dose: 6525 nM·h

## CC(C)(O)c1cc(COc2ccccc2CC(=O)O)cc(-c2ccc3c(c2)[C@H](N)CO3)c1
Plasma kallikrein
  pIC50: 8.22
Coagulation factor XI [1]
  pIC50: 6.77
Coagulation factor XI [2]
  pIC50: 8.40
physchem
  solubility thermodynamic: > 1000 µM
[5]
  Cmax/dose: 99 nM
Homo sapiens
  Ratio IC50: 40
[3]
  Papp: Bld
Complement factor D
  pIC50: 6.49
In vitro [4]
  Papp B→A: 19 ×10⁻⁶ cm/s
[11]
  clearance: 19 mL/min/kg
[12]
  Vd: 0.4 L/kg
[14]
  half-life: 1.7 h
[15]
  bioavailability: 3%
[18]
  AUC/dose: 186 nM·h

Reference: ChEMBL document CHEMBL4619774 (J Med Chem, 2020)
